Measurements from patent US9139532B2, “Pyrazolyl guanidine F1F0-atpase inhibitors and therapeutic uses thereof” (Lycera Corporation, priority 2010, dated 2015).
Where two headings read alike, the source gives them in different places.

Key:
F1F0-ATPase = target: T1, F1F0-ATPase (Bos taurus, UniProt P13621); assay: Inhibition of F1F0-ATPase activity in synthesizing ATP; type: biochemical; conditions: inhibition of ATP synthesis by F1F0-ATPase; read-out: ATP Syn IC50
T1 construct: from tissue

Ramos cells = assay: Cytotoxicity in Ramos cells; type: cell-based; conditions: cytotoxicity in Ramos cells, read-out: Ramos Cell EC50

| SMILES | IC50 (F1F0-ATPase) [µM] | EC50 (Ramos cells) [µM] | EC50 (Ramos cells; Homo sapiens) [µM] |
| --- | --- | --- | --- |
| O=C(/N=C(\Nc1cc(-c2ccc(Cl)cc2)n[nH]1)NC1CCC1)c1ccc(C(F)(F)F)cc1 [Compound A-236] | < 10 | < 10 | – |
| CCOCC(C)NC(=NC(=O)c1ccc(C(F)(F)F)cc1)Nc1cc(-c2ccc(Cl)cc2)n[nH]1 (stereo not shown) [Compound A-237] | < 10 | < 10 | – |
| COCC(C)NC(=NC(=O)c1ccc(C(F)(F)F)cc1)Nc1cc(-c2ccc(Cl)cc2)n[nH]1 (stereo not shown) [Compound A-238] | < 10 | – | < 10 |
| O=C(N=C(Nc1cc(-c2ccc(Cl)cc2)n[nH]1)NC1CCCC1)c1ccc(C(F)(F)F)cc1 [Compound A-239] | < 10 | – | > 10 |
| CC(C)CN/C(=N/C(=O)c1ccc(C(F)(F)F)cc1)Nc1cc(-c2ccc(Cl)cc2)n[nH]1 [Compound A-240] | < 10 | < 10 | – |
| CC(C)N/C(=N/C(=O)c1ccc(C(F)(F)F)cc1)Nc1cc(-c2ccc(Cl)cc2)n[nH]1 [Compound A-241] | < 10 | < 10 | – |
| CCOC[C@H](C)NC(=NC(=O)c1ccc(F)cc1)Nc1cc(-c2cc(F)cc(F)c2)n[nH]1 [Compound A-242] | < 10 | – | < 10 |
| O=C(/N=C(\Nc1cc(-c2cc(F)cc(F)c2)n[nH]1)NC1CCCC1)c1ccc(F)cc1 [Compound A-243] | < 10 | < 10 | – |
| CC(C)CN/C(=N/C(=O)c1ccc(F)cc1)Nc1cc(-c2cc(F)cc(F)c2)n[nH]1 [Compound A-244] | < 10 | < 10 | – |
| CC(C)N/C(=N/C(=O)c1ccc(F)cc1)Nc1cc(-c2cc(F)cc(F)c2)n[nH]1 [Compound A-245] | < 10 | < 10 | – |
| COCC(C)NC(=NC(=O)c1ccc(F)c(F)c1)Nc1cc(-c2cc(F)cc(Cl)c2)n[nH]1 (stereo not shown) [Compound A-246] | < 10 | – | < 10 |
| CCOC[C@H](C)N/C(=N/C(=O)c1ccc(F)c(F)c1)Nc1cc(-c2cc(F)cc(Cl)c2)n[nH]1 [Compound A-247] | < 10 | – | < 10 |
| O=C(N=C(Nc1cc(-c2ccc(F)cc2)n[nH]1)NC1CCCC1)c1ccc(Cl)cc1 [Compound A-248] | < 10 | – | < 10 |
| CC(C)CNC(=NC(=O)c1ccc(Cl)cc1)Nc1cc(-c2ccc(F)cc2)n[nH]1 [Compound A-249] | < 10 | – | < 10 |
| CC(C)N/C(=N/C(=O)c1ccc(Cl)cc1)Nc1cc(-c2ccc(F)cc2)n[nH]1 [Compound A-250] | < 10 | < 10 | – |
| O=C(/N=C(\Nc1cc(-c2ccc(Cl)cc2)n[nH]1)NC1CCC1)c1ccc(F)cc1 [Compound A-251] | < 10 | < 10 | – |
| O=C(/N=C(\Nc1cc(-c2ccc(Cl)cc2)n[nH]1)NC1CCCC1)c1ccc(F)cc1 [Compound A-253] | < 10 | < 10 | – |
| CC(C)CN/C(=N/C(=O)c1ccc(F)cc1)Nc1cc(-c2ccc(Cl)cc2)n[nH]1 [Compound A-254] | < 10 | < 10 | – |

| SMILES | IC50 (F1F0-ATPase) [µM] | EC50 (Ramos cells) [µM] | EC50 (Ramos cells; Homo sapiens) [µM] |
| --- | --- | --- | --- |
| CC(C)NC(=NC(=O)c1ccc(F)cc1)Nc1cc(-c2ccc(Cl)cc2)n[nH]1 [Compound A-255] | < 10 | – | < 10 |
| CCOCC(C)NC(=NC(=O)c1cccc(F)c1)Nc1cc(-c2ccc(F)cc2)n[nH]1 (stereo not shown) [Compound A-256] | < 10 | < 10 | – |
| CC(C)CN/C(=N/C(=O)c1cccc(F)c1)Nc1cc(-c2ccc(F)cc2)n[nH]1 [Compound A-257] | < 10 | < 10 | – |
| O=C(N=C(Nc1cc(-c2ccc(F)cc2)n[nH]1)NC1CCC1)c1ccc(F)c(F)c1 [Compound A-259] | < 10 | – | < 10 |
| O=C(/N=C(\Nc1cc(-c2ccc(F)cc2)n[nH]1)NC1CCCC1)c1ccc(F)c(F)c1 [Compound A-260] | < 10 | < 10 | – |
| CC(C)N/C(=N/C(=O)c1ccc(F)c(F)c1)Nc1cc(-c2ccc(F)cc2)n[nH]1 [Compound A-262] | < 10 | < 10 | – |
| O=C(N=C(Nc1cc(-c2ccc(F)cc2)n[nH]1)NC1CCC1)c1ccc(Cl)cc1 [Compound A-264] | < 10 | – | < 10 |
| CCOCC(C)NC(=NC(=O)c1ccc(F)cc1)Nc1cc(-c2ccc(F)cc2)n[nH]1 (stereo not shown) [Compound A-269] | < 10 | < 10 | – |
| O=C(/N=C(/NCC1CCO1)Nc1cc(-c2ccc(F)cc2)n[nH]1)c1ccc(F)cc1 (stereo not shown) [Compound A-270] | < 10 | > 10 | – |
| CC(C)OCCN/C(=N/C(=O)c1ccc(F)cc1)Nc1cc(-c2ccc(F)cc2)n[nH]1 [Compound A-271] | < 10 | < 10 | – |
| COC[C@H](C)N/C(=N/C(=O)c1ccc(Cl)cc1)Nc1cc(-c2ccc(F)cc2)n[nH]1 [Compound A-272] | < 10 | – | < 10 |
| COCC(C)NC(=NC(=O)c1ccc(Cl)c(F)c1)Nc1cc(-c2cc(F)cc(F)c2)n[nH]1 (stereo not shown) [Compound A-273] | < 10 | < 10 | – |
| COCC(C)NC(=NC(=O)c1ccc(F)cc1)Nc1cc(-c2cc(F)cc(F)c2)n[nH]1 (stereo not shown) [Compound A-275] | < 10 | < 10 | – |
| COCC(C)NC(=NC(=O)c1ccc(F)cc1)Nc1cc(-c2ccc(Cl)cc2)n[nH]1 (stereo not shown) [Compound A-276] | < 10 | < 10 | – |
| O=C(/N=C(\Nc1cc(-c2cc(F)cc(Cl)c2)n[nH]1)NC1CCC1)c1ccc(F)c(F)c1 [Compound A-284] | < 10 | < 10 | – |
| CCC(C)NC(=NC(=O)c1ccc(F)c(F)c1)Nc1cc(-c2cc(F)cc(Cl)c2)n[nH]1 (stereo not shown) [Compound A-285] | < 10 | – | < 10 |
| CC(C)N/C(=N/C(=O)c1ccc(F)c(F)c1)Nc1cc(-c2cc(F)cc(Cl)c2)n[nH]1 [Compound A-286] | < 10 | < 10 | – |
| CC(C)CN/C(=N/C(=O)c1ccc(F)c(F)c1)Nc1cc(-c2cc(F)cc(Cl)c2)n[nH]1 [Compound A-287] | < 10 | < 10 | – |

Now from value to compound, other results behind:

| IC50 (F1F0-ATPase) [µM] | SMILES | EC50 (Ramos cells) [µM] | EC50 (Ramos cells; Homo sapiens) [µM] |
| --- | --- | --- | --- |
| < 10 | CCOCCN/C(=N/C(=O)c1ccc(F)c(F)c1)Nc1cc(-c2ccc(F)cc2)n[nH]1 [Compound A-235] | < 10 | – |
| < 10 | CCOCC(C)NC(=NC(=O)c1ccc(F)cc1)Nc1cc(-c2ccc(Cl)cc2)n[nH]1 (stereo not shown) [Compound A-252] | – | < 10 |
| < 10 | CCOCC(C)NC(=NC(=O)c1ccc(F)c(F)c1)Nc1cc(-c2ccc(Cl)cc2)n[nH]1 (stereo not shown) [Compound A-258] | < 10 | – |
| < 10 | CC(C)CN/C(=N/C(=O)c1ccc(F)c(F)c1)Nc1cc(-c2ccc(F)cc2)n[nH]1 [Compound A-261] | < 10 | – |
| < 10 | CCOCC(C)NC(=NC(=O)c1ccc(F)c(F)c1)Nc1cc(-c2ccc(F)cc2)n[nH]1 (stereo not shown) [Compound A-263] | < 10 | – |
| < 10 | CCOC[C@H](C)NC(=NC(=O)c1ccc(Cl)cc1)Nc1cc(-c2ccc(F)cc2)n[nH]1 [Compound A-265] | – | < 10 |
| < 10 | O=C(/N=C(/NCC1CCO1)Nc1cc(-c2ccc(F)cc2)n[nH]1)c1ccc(F)c(F)c1 (stereo not shown) [Compound A-266] | < 10 | – |
| < 10 | CCOCC(C)N/C(=N/C(=O)c1ccc(F)c(F)c1)Nc1cc(-c2ccc(F)cc2)n[nH]1 (stereo not shown) [Compound A-267] | < 10 | – |
| < 10 | CCC(COC)N/C(=N/C(=O)c1ccc(F)c(F)c1)Nc1cc(-c2ccc(F)cc2)n[nH]1 (stereo not shown) [Compound A-268] | < 10 | – |
| < 10 | COCC(C)NC(=NC(=O)c1ccc(F)c(F)c1)Nc1cc(-c2ccc(F)cc2)n[nH]1 (stereo not shown) [Compound A-274] | < 10 | – |
| < 10 | CCOCCCN/C(=N/C(=O)c1ccc(F)c(F)c1)Nc1cc(-c2ccc(Cl)cc2)n[nH]1 [Compound A-277] | > 10 | – |
| < 10 | CCOCCCNC(=NC(=O)c1ccc(Cl)cc1)Nc1cc(-c2ccc(F)cc2)n[nH]1 [Compound A-278] | – | > 10 |
| < 10 | CCOCCCN/C(=N/C(=O)c1cccc(F)c1)Nc1cc(-c2ccc(F)cc2)n[nH]1 [Compound A-279] | < 10 | – |
| < 10 | CCOCCCN/C(=N/C(=O)c1ccc(F)cc1)Nc1cc(-c2ccc(F)cc2)n[nH]1 [Compound A-280] | > 10 | – |
| < 10 | CCOCCCN/C(=N/C(=O)c1ccc(F)c(F)c1)Nc1cc(-c2ccc(C)c(F)c2)n[nH]1 [Compound A-281] | < 10 | – |
| < 10 | CCOCCCN/C(=N/C(=O)c1ccc(C(F)(F)F)cc1)Nc1cc(-c2cc(F)cc(F)c2)n[nH]1 [Compound A-282] | < 10 | – |
| < 10 | CC(C)OCCCNC(=NC(=O)c1ccc(F)c(F)c1)Nc1cc(-c2cc(F)cc(Cl)c2)n[nH]1 [Compound A-283] | – | < 10 |
